This is an account of results in PubChem BioAssay AID602187 (Broad Institute, 2012).

The AC50 is the midpoint of the concentration-response curve, whichever way the signal moves.

Each structure is given as a SMILES string. Activity calls are given as the source filed them.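 Rule for the calls: active = compounds lowering yeast growth whose fitted half-maximal concentration is at most twice the top tested dose; inconclusive = flat partial growth drop between 30 and 70 percent, or poor fit; inactive = the rest.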

Test system in one experiment: not listed separately
Nature of the experiment: S. cerevisiae growth inhibition on glucose, dose response, glucose medium, OD600, dry powder (AID 602187). Conditions: S. cerevisiae growth in glucose medium, OD600, 48 h; at 19.5 µM (top of the series).
On to `O=C(Nc1nnc(-c2ccc3c(c2)CCCC3)o1)c1ccccc1`, for which the activity change, negative = inhibition was -13.1% (inactive). Same read-out and setting: the value for `NC(=O)c1cccc(C(=O)Nc2nc(-c3ccc4c(c3)CCCC4)cs2)c1` was 9.9% (inactive). Still for that read-out and setting: the value for `CCOC(=O)N1C(=O)C2(CCCCC2)N(c2ccc(C)cc2)C1=S` was 13.1% (inactive); that for `O=C(Nc1nc(-c2ccc3c(c2)CCCC3)cs1)c1ccccc1` was 34% (inactive). `C/C(=N\NC(=O)c1cc2ccccc2cc1O)c1ccccn1`: the activity change, negative = inhibition is -15% (inactive).

Turning to `Oc1c(C(c2ccc(Cl)cc2)N2CCCC2)ccc2cccnc12` (centres undefined), the activity change, negative = inhibition is 7.98% (inactive). Same read-out and setting: the value for `O=C(Nc1nc(-c2ccccn2)cs1)c1ccccc1` was -9.7% (inactive). With `Cc1cc(C)n(-c2nc3ccccc3c(=O)n2OCC#N)n1`, the activity change, negative = inhibition is -16.8% (inactive).

On to `Cc1ccc(C(=O)Nc2nnc(-c3ccccc3)o2)cc1C`, for which the activity change, negative = inhibition is 28.3% (inactive).

`O=C(Nc1nc(-c2ccccc2)cs1)c1ccc(Br)s1`: the activity change, negative = inhibition is 25.4% (inactive). For `COc1ccc(-c2nnc(NC(=O)c3ccc(S(=O)(=O)N4CCCc5ccccc54)cc3)o2)cc1`, the activity change, negative = inhibition is 19.9% (inactive). Turning to `O=C(Nc1nnc(-c2ccc3c(c2)CCCC3)o1)c1ccc(Cl)cc1Cl`, the activity change, negative = inhibition was -3.17% (inactive).

The experiment is the same for the next values; noted with them: S. cerevisiae growth in glucose medium, OD600, 48 h; at 23.5 µM (top of the series).
Take `Oc1c(CN2CCN(c3ccccc3)CC2)cc(Cl)c2cccnc12`: the activity change, negative = inhibition is 11.7% (inactive).

In a further experiment the test system is S. cerevisiae growth in glucose medium, OD600, 48 h. The description is as above.
Conditions: not given
As for `CN1CCN(C(c2ccc(C(F)(F)F)cc2)c2ccc3cccnc3c2O)CC1` (centres undefined), the AC50 is 3.32 µM. Take `O=C(Nc1nc(-c2ccccn2)cs1)c1ccc(Cl)s1`: the AC50 is 1.75 µM. Regarding `O=C(Nc1nc(-c2ccccn2)cs1)c1ccc(Br)s1`, the concentration at half-maximal activity (AC50) was 0.737 µM. Consider `CCCC(=O)NC(c1cccs1)c1cc(Cl)c2cccnc2c1O` (centres undefined), for which the AC50 is 5.88 µM. Regarding `O=C(NNC(=S)Nc1ccc(Cl)c(Cl)c1)c1ccccn1`, the half-maximal activity concentration (AC50) was 22 µM. Regarding `O=C(Oc1c(Cl)cc(Cl)c2cccnc12)c1ccco1`, the AC50 is 0.346 µM.

Regarding `Cc1ccc(-c2nc3c(Cl)cc(Cl)cc3c(=O)n2O)cc1`, the half-maximal activity concentration (AC50) is 2.01 µM. Regarding `Oc1c(C(c2ccccc2Cl)N2CCCCC2)ccc2cccnc12` (centres undefined), the AC50 was 16.3 µM. Regarding `C=CCNC(=S)N/N=C(\C)c1ccccn1`, the half-maximal activity concentration (AC50) was 6.93 µM.

Consider `Oc1c(CN2CCc3ccccc3C2)cc(Cl)c2cccnc12`, for which the AC50 is 15.3 µM.

As for `Cc1ccc(C(=O)Nc2nc(-c3ccccn3)cs2)cc1`, the AC50 is 6.06 µM.
